Reference: article PMC11624893 (Journal of the American Chemical Society, 2024)
Positions of bridges follow the written chain, without caps; N, C: chain ends. Non-standard residues stand in square brackets, D forms with d. Residues, ends and D or L forms follow the SMILES beside them. *: point of attachment. X1 = CC[C@H](C)CCCCC(=O)*; Dab = NCC[C@H](N)C(=O)O

Key:
S. aureus 29213 [1] = assay: Minimum inhibitory concentration; type: cell-based; settings: for Minimum Inhibitory Concentration (MIC): S. aureus 29213, Gram-positive, actively growing
E. coli 25922 [2] = assay: Minimum inhibitory concentration; type: cell-based; settings: for Minimum Inhibitory Concentration (MIC): E. coli 25922, Gram-negative
A. baumannii 19606 = assay: Minimum inhibitory concentration; type: cell-based; settings: for Minimum Inhibitory Concentration (MIC): A. baumannii 19606, Gram-negative
P. aeruginosa PA14 = assay: Minimum inhibitory concentration; type: cell-based; settings: for Minimum Inhibitory Concentration (MIC): P. aeruginosa PA14, Gram-negative
E. faecium 51559 [3] = assay: microbe, parasite or virus in culture; settings: Enterococcus faecium, VRE, read-out: Minimum Inhibitory Concentration (MIC)
K. pneumoniae 700603 [4] = assay: microbe, parasite or virus in culture; settings: Klebsiella pneumoniae, 700603, read-out: Minimum Inhibitory Concentration (MIC)
M. avium 700898 [5] = assay: microbe, parasite or virus in culture; settings: Mycobacterium avium, 700898, read-out: Minimum Inhibitory Concentration (MIC)
M. smegmatis 700084 [6] = assay: Minimum inhibitory concentration; type: cell-based; settings: M. smegmatis 700084, mycobacteria
M. abscessus 19977 = assay: Minimum inhibitory concentration; type: cell-based; settings: M. abscessus 19977, mycobacteria
[7] = tested on: biofilm-associated S. aureus 29213; assay: Minimum biofilm eradication concentration; type: cell-based
[8] = tested on: biofilm-associated E. coli 25922; assay: Minimum biofilm eradication concentration; type: cell-based
[9] = tested on: biofilm-associated M. smegmatis 700084; assay: Minimum biofilm eradication concentration; type: cell-based
E. faecium 51559 [10] = settings: E. faecium 51559, vanA-type resistance reference strain (VRE)
K. pneumoniae 700603 [11] = settings: K. pneumoniae 700603, Gram-negative
M. avium 700898 [12] = settings: M. avium 700898, mycobacteria
[13] = tested on: panel containing Gram-positive, Gram-negative, and mycobacterial microorganisms; assay: MIC assay, statements over the whole panel; type: cell-based; settings: Gram-negative organisms (E. coli, A. baumannii, K. pneumoniae, P. aeruginosa)
S. aureus = assay: Peptidoglycan precursor accumulation, LC-MS; type: cell-based; settings: treatment, cell lysis
M. smegmatis = assay: Peptidoglycan precursor accumulation, LC-MS; type: cell-based; settings: treatment, cell lysis
S. aureus 29213 [14] = assay: Membrane permeability, propidium iodide; type: cell-based; settings: S. aureus 29213, exponential-phase cells in HEPES-Glucose buffer
E. coli 25922 [15] = assay: Outer membrane permeability, 1-N-phenylnapthylamine; type: cell-based; settings: E. coli 25922, 5e at 80 μM (10x MIC)
M. smegmatis 700084 [16] = assay: Ethidium bromide; type: cell-based; settings: M. smegmatis 700084, 8 μM (1x MIC)
[17] = biofilm-associated S. aureus 29213, as given in the text
[18] = pre-formed biofilm of E. coli 25922, Table 2
[19] = pre-formed biofilms of E. coli 25922, as given in the text

Row | Compound | Minimum Inhibitory Concentration (MIC) (S. aureus 29213 [1]) [µM] | Minimum Inhibitory Concentration (MIC) (E. coli 25922 [2]) [µM] | Minimum Inhibitory Concentration (MIC) (A. baumannii 19606) [µM] | Minimum Inhibitory Concentration (MIC) (P. aeruginosa PA14) [µM] | Minimum Inhibitory Concentration (MIC) (M. smegmatis 700084 [6]) [µM] | Minimum Inhibitory Concentration (MIC) (M. abscessus 19977) [µM] | minimum biofilm eradication concentration (MBEC) [7, 17] [µM] | minimum biofilm eradication concentration (MBEC) [8, 18] [µM] | minimum biofilm eradication concentration (MBEC) [8, 19] | Minimum Inhibitory Concentration (MIC) (E. faecium 51559 [10]) [µM] | Minimum Inhibitory Concentration (MIC) (K. pneumoniae 700603 [11]) [µM] | Minimum Inhibitory Concentration (MIC) (M. avium 700898 [12]) [µM] | further results
1 | CN(C)C(=N)N=C(N)N [Metformin, metformin] |  |  |  |  |  |  |  |  |  |  |  |  | MIC (S. aureus 29213 [1]; Staphylococcus aureus, 29213, read-out: Minimum Inhibitory Concentration (MIC)): > 512 µM; MIC (E. coli 25922 [2]; Escherichia coli, 25922, read-out: Minimum Inhibitory Concentration (MIC)): > 512 µM; MIC (A. baumannii 19606; Acinetobacter baumannii, 19606, read-out: Minimum Inhibitory Concentration (MIC)): > 512 µM; MIC (P. aeruginosa PA14; Pseudomonas aeruginosa, PA14, read-out: Minimum Inhibitory Concentration (MIC)): > 512 µM; MIC (E. faecium 51559 [3]): > 512 µM; MIC (K. pneumoniae 700603 [4]): > 512 µM; MIC (M. avium 700898 [5]): > 512 µM
2 | CN[C@H](CC(C)C)C(=O)N[C@H]1C(=O)N[C@@H](CC(N)=O)C(=O)N[C@H]2C(=O)N[C@H]3C(=O)N[C@H](C(=O)N[C@H](C(=O)O)c4cc(O)cc(O)c4-c4cc3ccc4O)[C@H](O[C@H]3C[C@](C)(N)[C@@H](O)[C@H](C)O3)c3ccc(c(Cl)c3)Oc3cc2cc(c3O[C@@H]2O[C@H](CO)[C@@H](O)[C@H](O)[C@H]2O[C@H]2C[C@](C)(NCc3ccc(-c4ccc(Cl)cc4)cc3)[C@@H](O)[C@H](C)O2)Oc2ccc(cc2Cl)[C@H]1O [Oritavancin, oritavancin] | 1 | >512 | 512 | >512 | 32 | 128 | 2 to 4 | >128 | no activity | 2 | >512 | 128 | minimum biofilm eradication concentration (MBEC) ([7]; pre-formed biofilm of S. aureus 29213, Table 2): 2 to 4 µM; minimum biofilm eradication concentration (MBEC) ([9]; pre-formed biofilms of M. smegmatis 700084, as given in the text): > 256 µM
3 | CC[C@H](C)CCCCC(=O)N[C@@H](CCN)C(=O)N[C@H](C(=O)N[C@@H](CCN)C(=O)N[C@H]1CCNC(=O)[C@H]([C@@H](C)O)NC(=O)[C@H](CCN)NC(=O)[C@H](CCN)NC(=O)[C@H](CC(C)C)NC(=O)[C@@H](Cc2ccccc2)NC(=O)[C@H](CCN)NC1=O)[C@@H](C)O [Polymyxin B, polymyxin B] (X1-[Dab]T[Dab][Dab][Dab][dF]L[Dab][Dab]T; lactam 4-C (inferred); N-terminus assumed) |  |  |  |  |  |  |  | 16 to 32 | 16 to 32 µM |  |  |  | 
4 | CO[C@H]1/C=C/O[C@@]2(C)Oc3c(C)c(O)c4c(O)c(c(/C=N/N5CCN(C)CC5)c(O)c4c3C2=O)NC(=O)/C(C)=C\C=C\[C@H](C)[C@H](O)[C@@H](C)[C@@H](O)[C@@H](C)[C@H](OC(C)=O)[C@@H]1C [Rifampicin, rifampicin] |  |  |  |  |  |  | 16 to 32 |  |  |  |  |  | 
5 | CN[C@H](CC(C)C)C(=O)N[C@H]1C(=O)N[C@@H](CC(N)=O)C(=O)N[C@H]2C(=O)N[C@H]3C(=O)N[C@H](C(=O)N[C@H](C(=O)O)c4cc(O)cc(O)c4-c4cc3ccc4O)[C@H](O)c3ccc(c(Cl)c3)Oc3cc2cc(c3O[C@@H]2O[C@H](CO)[C@@H](O)[C@H](O)[C@H]2O[C@H]2C[C@](C)(N)[C@H](O)[C@H](C)O2)Oc2ccc(cc2Cl)[C@H]1O [Vancomycin, vancomycin] | 1 | 128 to 256 | 64 to 128 | 256 to 512 | 8 | 32 to 64 | > 512 |  | 256 µM | 512 | 256 to 512 | 16 | typical MIC against Gram-negative organisms [13]: ≥ 128 µM; minimum biofilm eradication concentration (MBEC) ([9]; pre-formed biofilm of M. smegmatis 700084, Table 2): 64 µM; accumulation of peptidoglycan precursor (UDP-MurNAc pentapeptide) (S. aureus): accumulation of the UDP-MurNAc pentapeptide; accumulation of peptidoglycan precursor (UDP-MurNGlyc pentapeptide) (M. smegmatis): related UDP-MurNGlyc pentapeptide in M. smegmatis; PI fluorescence (membrane permeabilization) (S. aureus 29213 [14]): no increase in fluorescence; NPN fluorescence (outer membrane destabilization) (E. coli 25922 [15]): no increase in fluorescence; EtBr fluorescence (M. smegmatis 700084 [16]): did not influence EtBr fluorescence
6 | Gentamycin |  |  |  |  |  |  |  | 8 |  |  |  |  | 
